# Active and inactive are the calls of the source.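 How the source made its calls: active means compounds raising the signal whose fitted half-maximal concentration is at or below their top tested dose (cut at about 25 µM in these data); inconclusive means flat fit at 30 to 70% activity, or a poor fit; inactive means the rest.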
# Test system: INS-1E rat beta cells, no cytokines, CellTiter-Glo ATP, 48 h
# Assay: ATP level change in INS-1E without cytokines, dose response, counter-screen for beta-cell apoptosis protection project, INS-1E rat cells, ATP luminescence, cherry pick (AID 463229)
row,Compound,AC50
1,CC(C)CC[n+]1ccn(C2=C([O-])c3ccccc3C(=O)/C2=N\S(=O)(=O)c2ccccc2)c1,22.9 µM
2,N#CC1=C(N)Oc2c(ccc3cccnc23)C1c1ccccc1 (centres undefined),19.3 µM
3,Cc1cccc(/C=C/C(=O)c2ccc([N+](=O)[O-])o2)c1,4.26 µM
4,COc1ccc(N/N=C(/N=Nc2nc(C)cc(=O)[nH]2)c2ccccc2)cc1,1.78 µM
5,COc1ccc(CCNc2ncnc3sccc23)cc1OC,1.13 µM
6,CC(C)c1nc(-c2ccccc2)c(-c2ccccc2)[nH]1,6.81 µM
7,Cc1cc([N+](=O)[O-])nn1Cc1ccc(C(=O)N/N=C/c2ccc(O)cc2O)cc1,6.27 µM
8,Cc1nc2c3cc(F)ccc3n(Cc3ccccc3)c2s1,> 26 µM (inactive)
9,c1ccc2c(c1)ncn2CCCOc1ccc2c(c1)CCC2,7.74 µM
10,O=C(NCC#CCSc1nnc(-c2cccc3ccccc23)o1)c1cccs1,1.9 µM
11,Cc1[nH]n(-c2ccccc2)c(=O)c1N=Nc1c(O)cc(S(=O)(=O)N(C)C)c2ccccc12,3.72 µM
12,COc1cccc(/C=N/NC(=O)c2c(C)nc3ccc(Cl)cn23)c1O,3.81 µM
13,O=C(Nc1nc(-c2ccccn2)cs1)c1ccccc1-n1cnnn1,5.32 µM
14,Cc1ccc(S(=O)(=O)/N=C2/C=C(Sc3ncn[nH]3)C(=O)c3ccccc32)cc1,8.08 µM
15,CC(=O)c1c(C)oc2c1C(=O)c1ccccc1C2=O,14.4 µM
16,O=C(Nc1nc2ccc(F)cc2s1)C1CCN(S(=O)(=O)c2cc([N+](=O)[O-])ccc2Cl)CC1,7.01 µM
17,Clc1ccc(C[n+]2c(-c3ccccc3)cc(-c3ccccc3)cc2-c2ccccc2)cc1,2.01 µM
18,O=C(NCc1ccccc1)C1=C[C@@H](c2csc3ccccc23)C[C@@H](OCCCCO)O1,2.67 µM
19,[O-]c1ccccc1-[n+]1c(-c2ccccc2)cc(-c2ccccc2)cc1-c1ccccc1,6.87 µM
20,C/C(=N\NC(=O)c1ccccc1NC(=O)c1ccc(Cl)cc1)c1ccncc1,0.967 µM
21,COc1ccc(Cc2nnc(N/N=C/c3ccc(O)cc3)[nH]c2=O)cc1OC,4.32 µM
22,O=C(Nc1cc(S(=O)(=O)Nc2ccc(Cl)cc2)ccc1N1CCCCC1)c1ccc(F)cc1,7.6 µM

row,Compound,AC50
1,O=NN(CCc1ccncc1)c1ccc(OCc2ccccc2)cc1,8.16 µM
2,Cn1nc(CC(=O)Nc2ccc3c(c2)OCCO3)c2ccccc2c1=O,5.63 µM
3,Cc1cc(C)n(-c2nc(NCCN(C)C)c3c4c(sc3n2)CCCC4)n1,9.54 µM
4,C/C(=N\NC(=O)c1ccc(F)cc1)c1ccccn1,2.35 µM
5,COc1ccccc1N1CCN(c2ncc(C(=O)N3CCN(c4cccc(Cl)c4)CC3)c3ccccc23)CC1,4.69 µM
6,Fc1cc(F)c2nc(Nc3nc4c(F)cccc4s3)sc2c1,4.95 µM
7,CCOc1ccc(-c2csc(/C(C#N)=C\c3ccc(O)c([N+](=O)[O-])c3)n2)cc1,4.57 µM
8,Cc1sc2ncnc(N3CCN(CCOc4ccc(Cl)cc4)CC3)c2c1C,4.74 µM
9,O=C(Nc1cc(-c2ccccc2)nn1C1CCCCC1)c1ccc(Cl)cc1,3.67 µM
10,Cc1ccc(C2C(C=Nc3c(C)n(C)n(-c4ccccc4)c3=O)=C(c3ccccc3)Oc3ccccc32)cc1 (centres undefined),7.38 µM
11,COc1ccc(/C=C2\CN(Cc3ccccc3)C/C(=C\c3ccc(OC)c(O)c3)C2=O)cc1O,4.75 µM
12,O=C(Nc1ccc(-c2noc(-c3cccs3)n2)cc1)c1cccnc1,13 µM
13,O=C1C(Cl)=C(NCCN2CCCCC2)C(=O)c2ccccc21,14.1 µM
14,Cc1ccccc1OCCn1c(C)nc2ccccc21,15.2 µM
15,CCN1C/C(=C/c2cccc([N+](=O)[O-])c2)C(=O)/C(=C/c2cccc([N+](=O)[O-])c2)C1,2.39 µM
16,NNc1nc(-c2ccccc2)cc(-c2ccccc2O)n1,17.7 µM
17,O=C(N/N=C/c1cccnc1)c1ccc(NC(=O)C(c2ccccc2)c2ccccc2)cc1,0.848 µM
18,CCS(=O)(=O)c1ncc(Cl)c(C(=O)Nc2ccc(S(=O)(=O)N3CCC(C)CC3)cc2)n1,7.4 µM
19,CN(C)c1nc(N/N=C/c2ccccc2O)nc(Nc2ccc(F)cc2)n1,11.3 µM
20,COc1ccc(C(NC(=O)C(C)C)c2ccc3cccnc3c2O)cc1 (centres undefined),2.84 µM
21,O=C(N/N=C/c1sc2ccccc2c1O)c1cccc2ccccc12,4.8 µM
22,O=C(Nc1cc(Sc2ccccn2)cc([N+](=O)[O-])c1)c1ccc(Cl)cc1,8.9 µM

row,Compound,AC50
1,O=S(=O)(c1cccs1)N1CCN(CC(O)COc2cc(Cl)ccc2Cl)CC1 (centres undefined),13.3 µM
2,CCCc1cc(=O)n2[nH]cc(-c3ccc(Cl)cc3)c2n1,11.9 µM
3,CCN1CCN(C(c2ccc(C(F)(F)F)cc2)c2ccc3cccnc3c2O)CC1 (centres undefined),4.72 µM
4,CC1CCC(C(C)C)C(OC(=O)Cn2c(-c3ccc(F)cc3)[n+](C)c3ccccc32)C1 (centres undefined),4.49 µM
5,COc1ccccc1NC(=O)CN(c1ccc(C23CC4CC(CC(C4)C2)C3)cc1)S(C)(=O)=O,5.11 µM
6,CCOc1cc(S(=O)(=O)NCc2ccncc2)ccc1Cl,1.19 µM
7,c1ccc2c(c1)OCC(CNc1ncnc3sccc13)O2 (centres undefined),1.6 µM
8,CCn1c(C)c(C)c2cc(C(=O)N3CCc4ccccc4C3)ccc21,3.14 µM
9,Cc1ccc(NC2=CC(=O)C(=O)c3ccccc32)c(C)c1,4.39 µM
10,O=C1/C(=C/c2cccnc2)CCC/C1=C\c1cccnc1,6.89 µM
11,C/C(=N\N1C(=O)c2ccccc2NC1c1ccccc1)c1ccccc1O (centres undefined),19.1 µM
12,C/C(=N\NC(=O)c1nnn(-c2nonc2N)c1CN1CCc2ccccc21)c1ccccc1O,11.4 µM
13,O=C(CN1CC[n+]2c(-c3cccs3)csc21)c1ccc(-c2ccccc2)cc1,2.34 µM
14,CN(C)C1CCN(Cc2cc(COCc3ccccc3)c3cccnc3c2O)C1 (centres undefined),10.9 µM
15,O=C(Nc1ccc(OCC(=O)N2CCC(Cc3ccccc3)CC2)cc1)c1ccco1,7 µM
16,Cc1cc(C(C)(C)CC(C)(C)C)ccc1OCCOCC[N+](C)(C)Cc1ccccc1,4.07 µM
17,COc1ccc(C(=O)N/N=C/c2sc3ccccc3c2O)cc1,7.83 µM
18,CCCCOc1ncnc2c1[nH]c1ccc(F)cc12,5.3 µM
19,Cc1cccc(NC(=O)c2ccc([N+](=O)[O-])s2)c1C,26.1 µM
20,Cc1cccc(C(=O)Nc2ccc(C(=O)/C=C/c3cccnc3)cc2)c1,7.53 µM
21,COc1ccc(C(NC(C)=O)c2cc(Cl)c3cccnc3c2O)cc1 (centres undefined),7.34 µM
22,C=C(C=O)C[C@@H]1C[C@H](O)C2OC3C[C@]4(C)OC5/C=C\CC6OC7C(CC=CCC6OC5CCCC4OC3CC2O1)OC1CC2OC3CC(=O)OC3C[C@@H](C)C[C@@]2(C)OC1C[C@@H]7C (some centres undefined),3.79 µM

row,Compound,AC50
1,COc1ccc(-[n+]2c(-c3ccccc3)cc(-c3ccccc3)cc2-c2ccccc2)cc1,1.71 µM
2,Cn1nc(C(C)(C)C)cc1C(=O)NCc1cc(F)cc2c1OCOC2,5.86 µM
3,C/C(=N\NC(=O)COc1ccccc1-c1ccccc1)c1ccccn1,6.13 µM
4,CC1=C(C)/C(=N\OS(=O)(=O)c2ccccc2)C=CC1=O,4.13 µM
5,CN(C)S(=O)(=O)c1ccc(Nc2nc(C3CC3)nc3c2nnn3Cc2ccccc2Cl)cc1,7 µM
6,COc1ccc(-c2c[n+](CC(=O)OC3CC(C)CCC3C(C)C)c3n2CCC3)cc1 (centres undefined),1.87 µM
7,Cc1ccc(C(C)C)c(OCC(O)CN2CCc3ccccc3C2)c1 (centres undefined),9.7 µM
8,COc1ccc([N+](=O)[O-])c(S(=O)(=O)c2ccccc2)n1,7.36 µM
9,Cc1cc(N/N=C/c2c(O)ccc3ccccc23)nc(-c2ccccc2O)n1,11.7 µM
10,CCCCCCCC[n+]1c(C)n(-c2ccccc2)c2ccc(NC(C)=O)cc21,3.76 µM
11,COc1ccc(O)c(/C=N/NC(=S)Nc2cccnc2)c1,15.6 µM
12,O=C(N/N=C/c1c(O)ccc2ccccc12)c1[nH]ncc1Br,2.16 µM
13,COc1ccc(/C=C/C(=O)c2ccc([N+](=O)[O-])o2)cc1,12.5 µM
14,CCOC(=O)c1c(C)[nH]c(C(=O)N/N=C\c2ccccc2O)c1C,6.52 µM
15,COc1ccc(/C=N/Nc2cc(C)nc3ccc(OC)cc23)c(OC)c1,13.5 µM
16,CCCOc1ccc(Br)cc1CSC(=N)N,8.01 µM
17,O=C1C(=O)c2c(C(=O)c3ccccc3)coc2-c2ccccc21,7.21 µM
18,CCN(CC)S(=O)(=O)c1cc(NC(=O)CNc2cccc(S(=O)(=O)N3CCCC3)c2)ccc1C,7.43 µM
19,O=C(NCCOCCOCCNC(=O)c1cccnc1)c1cccnc1,3.83 µM
20,CCCCCCc1ccc(N2C[C@H](Cc3ccccc3)[C@@H](CC(=O)NCc3ccc(OC)cc3)C2=O)cc1,13.6 µM
21,O=C(Nc1ccc(-c2nc3ccccc3o2)cc1)c1ccc(N2CCOCC2)c([N+](=O)[O-])c1,5.65 µM
22,Cc1cc(-c2ccccc2)cc(C)[n+]1Cc1ccccc1,0.667 µM

row,Compound,AC50
1,Oc1cccc2ccc(Nc3ccccn3)nc12,2.27 µM
2,CC(=O)NC(C)c1cc(Cl)c2cccnc2c1O (centres undefined),10.7 µM
3,C[n+]1c2n(c3ccccc31)N=C(c1ccc(Cl)cc1)CS2,4.29 µM
4,O=C(N/N=C/c1cc(Br)c(O)c(Br)c1O)c1ccc2c(c1)OCCO2,8.27 µM
5,N#C/C(=N\Nc1cccc([N+](=O)[O-])c1)C(=O)c1ccc(Br)cc1,7.29 µM
6,CC(=O)NC(c1ccccc1)c1cc(Cl)c2cccnc2c1O (centres undefined),6.26 µM
7,CC(=O)NC(c1ccco1)c1cc(F)c2cccnc2c1O (centres undefined),10.6 µM
8,CCCCC(=O)NC(c1ccccc1Cl)c1ccc2cccnc2c1O (centres undefined),2.09 µM
9,OC(CNCCC1C=Nc2ccccc21)Cn1c2ccc(Cl)cc2c2cc(Cl)ccc21 (centres undefined),7.93 µM
10,O=C(Nc1ccc(C(F)(F)F)cc1)C1CCN(S(=O)(=O)c2ccc(N3CCCC3=O)cc2)CC1,4.37 µM
11,CCCCCCCCCCCCCCCC[N+](C)(C)C,7.81 µM
12,CS(=O)(=O)N(CC(=O)Nc1ccc(CC#N)cc1)c1ccc(C23CC4CC(CC(C4)C2)C3)cc1,7.41 µM
13,CCN(CC)S(=O)(=O)c1ccc(N2CCN(c3ccccc3OC)CC2)c(N)c1,5.19 µM
14,CCc1nc(N2CCN(C(C)=O)CC2)c2c3c(sc2n1)CC(C(C)(C)C)CC3 (centres undefined),2.79 µM
15,Cc1c(C(=O)Nc2nc(-c3ccccn3)cs2)oc2ccccc12,17.4 µM
16,COc1ccc(NC(=O)/C(Cl)=C(/Cl)S(=O)Cc2ccccc2)cn1 (centres undefined),2.05 µM
17,COc1ccc(Cn2c(SCc3ccccc3C)nc3cc(OC)c(OC)cc3c2=N)cc1,7.93 µM
18,Cc1cc(C(=O)C(C)OC(=O)c2ccc(NC(=O)CC#N)cc2)c(C)n1-c1ccc(OC(F)F)cc1 (centres undefined),8.14 µM
19,C/C(=N\NC(=O)c1c(C)nc2ccccn12)c1ccc(O)cc1O,19.5 µM
20,C=CCn1cc(/C=C/c2cc[n+](C)cc2)c2ccccc21,4.63 µM
21,N/C(=N\OC(=O)c1cccc(Cn2cc(C(F)(F)F)ccc2=O)c1)c1ccccc1,7.71 µM
